Results: patent US20060148858A1, “1, 2-Azole derivatives with hypoglycemic and hypolipidemic activity” (priority 2002, published 2006)

Row | melting point [°C] | SMILES
1 | 115 to 116 | CCOc1nn(-c2ccc(C(F)(F)F)cn2)cc1CCCOc1cc(OC)ccc1CCC(=O)O [Example 143, 3-[2-(3-{3-ethoxy-1-[5-(trifluoromethyl)-2-pyridyl]-1H-pyrazol-4-yl}propoxy)-4-methoxyphenyl]propionic acid]
2 | 93 to 94 | CCOc1nn(-c2ccc(C(F)(F)F)cn2)cc1CCCOc1ccccc1CCC(=O)O [Example 144, 3-[2-(3-{3-ethoxy-1-[5-(trifluoromethyl)-2-pyridyl]-1H-pyrazol-4-yl}propoxy)phenyl]propionic acid]
3 | 110 to 111 | CCOc1nn(-c2ccc(C(F)(F)F)cn2)cc1CCCOc1cccc(OC)c1CCC(=O)O [Example 148, 3-[2-(3-{3-ethoxy-1-[5-(trifluoromethyl)-2-pyridyl]-1H-pyrazol-4-yl}propoxy)-6-methoxyphenyl]propionic acid]
4 | 124 to 125 | CCOc1nn(-c2ccc(C(F)(F)F)cn2)cc1CCCOc1ccc(CCC(=O)O)cc1O [Example 161, 3-[4-(3-{3-ethoxy-1-[5-(trifluoromethyl)-2-pyridyl]-1H-pyrazol-4-yl}propoxy)-3-hydroxyphenyl]propanoic acid]
5 | 114 to 115 | CCOc1cc(CCC(=O)O)ccc1OCCCc1cn(-c2ccc(C(F)(F)F)cn2)nc1OCC [Example 162, 3-[3-ethoxy-4-(3-{3-ethoxy-1-[5-(trifluoromethyl)-2-pyridyl]-1H-pyrazol-4-yl}propoxy)phenyl]propanoic acid]
6 | 106 to 107 | CCCOc1cc(CCC(=O)O)ccc1OCCCc1cn(-c2ccc(C(F)(F)F)cn2)nc1OCC [Example 163, 3-[4-(3-{3-ethoxy-1-[5-(trifluoromethyl)-2-pyridyl]-1H-pyrazol-4-yl}propoxy)-3-propoxyphenyl]propanoic acid]
7 | 93 to 94 | CCOc1nn(-c2ccc(C(F)(F)F)cn2)cc1CCCOc1ccc(CCC(=O)O)cc1OC(C)C [Example 164, 3-[4-(3-{3-ethoxy-1-[5-(trifluoromethyl)-2-pyridyl]-1H-pyrazol-4-yl}propoxy)-3-isopropoxyphenyl]propanoic acid]
8 | 115 to 116 | CCOc1nn(-c2ccc(C(F)(F)F)cn2)cc1CCCOc1ccc(CCC(=O)O)cc1OCc1ccccc1 [Example 166, 3-[3-benzyloxy-4-(3-{3-ethoxy-1-[5-(trifluoromethyl)-2-pyridyl]-1H-pyrazol-4-yl}propoxy)phenyl]propanoic acid]
9 | 99 to 100 | CCOc1nn(-c2ccc(C(F)(F)F)cn2)cc1CCCOc1cc(CCC(=O)O)cc(OC)c1 [Example 167, 3-[5-(3-{3-ethoxy-1-[5-(trifluoromethyl)-2-pyridyl]-1H-pyrazol-4-yl}propoxy)-3-methoxyphenyl]propanoic acid]

More lines, now with the values behind:

Row | SMILES | melting point [°C]
10 | CCOc1nn(-c2ccc(C(F)(F)F)cn2)cc1CCCOc1c(CCC(=O)O)cccc1OC [Example 145, 3-[2-(3-{3-ethoxy-1-[5-(trifluoromethyl)-2-pyridyl]-1H-pyrazol-4-yl}propoxy)-3-methoxyphenyl]propionic acid] | 87 to 88
11 | CCCc1nn(-c2ccc(C(F)(F)F)cn2)cc1COc1cccc(CC(=O)O)c1 [Example 147, [3-({3-propyl-1-[5-(trifluoromethyl)-2-pyridyl]-1H-pyrazol-4-yl}methoxy)phenyl]acetic acid] | 77 to 78
12 | Cc1nn(-c2ccc(C(F)(F)F)cn2)cc1COc1cccc(CC(=O)O)c1 [Example 149, [3-({3-methyl-1-[5-(trifluoromethyl)-2-pyridyl]-1H-pyrazol-4-yl}methoxy)phenyl]acetic acid] | 142 to 143
13 | CCOc1cc(OCCCc2cn(-c3ccc(C(F)(F)F)cn3)nc2O)ccc1CCC(=O)O [Example 151, 3-[2-ethoxy-4-(3-{3-hydroxy-1-[5-(trifluoromethyl)-2-pyridyl]-1H-pyrazol-4-yl}propoxy)phenyl]propanoic acid] | 192 to 194
14 | CCOc1cc(OCCCc2cn(-c3ccc(C(F)(F)F)cn3)nc2OCc2ccccc2)ccc1CCC(=O)O [Example 156, 3-[4-(3-{3-benzyloxy-1-[5-(trifluoromethyl)-2-pyridyl]-1H-pyrazol-4-yl}propoxy)-2-ethoxyphenyl]propanoic acid] | 106 to 107
15 | CCCc1nn(-c2ccc(C(F)(F)F)cn2)cc1CCCOc1cccc(C(C)(C)C(=O)O)c1 [Example 159, 2-methyl-2-[3-(3-{3-propyl-1-[5-(trifluoromethyl)-2-pyridyl]-1H-pyrazol-4-yl}propoxy)phenyl]propanoic acid] | 82 to 83
16 | CCOc1nn(-c2ccc(C(F)(F)F)cn2)cc1CCCOc1cccc(C(C)(C)C(=O)O)c1 [Example 160, 2-[3-(3-{3-ethoxy-1-[5-(trifluoromethyl)-2-pyridyl]-1H-pyrazol-4-yl}propoxy)phenyl]-2-methylpropanoic acid] | 131 to 132
17 | CCCCOc1cc(CCC(=O)O)ccc1OCCCc1cn(-c2ccc(C(F)(F)F)cn2)nc1OCC [Example 165, 3-[3-butoxy-4-(3-{3-ethoxy-1-[5-(trifluoromethyl)-2-pyridyl]-1H-pyrazol-4-yl}propoxy)phenyl]propanoic acid] | 92 to 93
18 | CCOc1cc(OCCCc2cn(-c3ccc(C(F)(F)F)cn3)nc2O)ccc1CCC(=O)OC [Example 171, methyl 3-[2-ethoxy-4-(3-{3-hydroxy-1-[5-(trifluoromethyl)-2-pyridyl]-1H-pyrazol-4-yl}propoxy)phenyl]propanoate] | 147 to 148
19 | CC(C)c1nn(-c2ccc(C(F)(F)F)cn2)cc1COc1cccc(CC(=O)O)c1 [Example 176, 3-{3-isopropyl-1-[5-(trifluoromethyl)-2-pyridyl]-1H-pyrazol-4-yl}methoxyphenylacetic acid] | 114 to 115
20 | CCOc1nn(-c2ccc(C(F)(F)F)cn2)cc1CCCOc1cccc(OC)c1CC(=O)O [Example 177, [6-(3-{3-ethoxy-1-[5-(trifluoromethyl)-2-pyridyl]-1H-pyrazol-4-yl}propoxy)-2-methoxyphenyl]acetic acid] | 150 to 151
21 | CC(C)c1nn(-c2ccc(C(F)(F)F)cc2)cc1COc1cccc(CC(=O)O)c1 [Example 178, [3-({3-isopropyl-1-[4-(trifluoromethyl)phenyl]-1H-pyrazol-4-yl}methoxy)phenyl]acetic acid] | 92 to 93
22 | COc1ccc(CC(=O)O)cc1OCCCc1cn(-c2ccc(C(F)(F)F)cn2)nc1C(C)C [Example 183, [3-(3-{3-isopropyl-1-[5-(trifluoromethyl)-2-pyridyl]-1H-pyrazol-4-yl}propoxy)-4-methoxyphenyl]acetic acid] | 122 to 123
23 | O=C(O)Cc1cccc(OCc2cn(-c3ccc(C(F)(F)F)cn3)nc2C2CCCCC2)c1 [Example 187, [3-({3-cyclohexyl-1-[5-(trifluoromethyl)-2-pyridyl]-1H-pyrazol-4-yl}methoxy)phenyl]acetic acid] | 129 to 130
24 | O=C(O)Cc1ccccc1OCc1cn(-c2ccc(C(F)(F)F)cn2)nc1C1CCCCC1 [Example 188, [2-({3-cyclohexyl-1-[5-(trifluoromethyl)-2-pyridyl]-1H-pyrazol-4-yl}methoxy)phenyl]acetic acid] | 131 to 132
